These results are taken from patent publication US20110117070A1, “COMPOSITIONS AND METHODS FOR TREATING HEADACHE” (priority 2005, published 2011).

The subject of one data set is cluster headaches. Particulars: cited from earlier work.
Data set [1] has as its system migraine. As to the kind of experiment: Retrospective chart review of migraine treatment efficacy in 20 headache clinic patients. The format is in vivo, human. Further details: key: 1: no measurable efficacy; 2: some measurable difference in severity and or frequency of headache; 3: modest improvement in severity or frequency of headache; 4: headache frequency improvement either 50% or greater in frequency, severity or both. The following applies: topiramate alone, monotherapy for at least 6 weeks; one line per patient at the indicated daily dosage. Here is the method: (§1) In a headache clinic, 20 patients suffering from migraine are treated with a dosage of topiramate and then an additional, secondary therapeutic component comprising one of the following therapeutic agents, or mixture of agents: 1) a commercially available combination tablet sold under the name Migrelief® dietary supplement contains puracol feverfew extract (comprising partheolide), magnesium citrate/oxide (1:1), and riboflavin; and 2) a second medicine having the trade name Migravent® natural supplement containing butterbur extract (including petasin and isopetasin), and a blend of riboflavin, magnesium and coenzyme Q10; these combined ingredients are present in a “proprietary blend” of 876 mg.
(§2) In twenty patients suffering from migraine the effect of augmentation of topiramate treatment was formally documented. […] Patients were treated in combination therapy with topiramate and the indicated second agent for 6 weeks before side effect and efficacy data were obtained for comparison with the monotherapy data. Dosages of the second therapeutic component was as follows: Migravent: 150 mg pyrrolizidine alkaloids (PA) free) and 876 mg (Riboflavin, Magnesium, Co-enzyme Q-10 [propriety blend]); Migralief: Magnesium citrate and oxide 360 mg, riboflavin 400 mg and Puracol Feverfew (Tanacetum parthenium). […]

Data set [2] deals with migraine. The following applies: cited from earlier work; for reduction of migraine incidents vs. placebo: 50 mg/day or less.
Data set [3] concerns migraine. As to the kind of experiment: Retrospective chart review of migraine treatment efficacy in 20 headache clinic patients. Particulars: topiramate alone, monotherapy for at least 6 weeks; one line per patient at the indicated daily dosage. The format is in vivo, human. Also on record: concentration or dose not given beside the values. Here is the method: as §1, §2
Data set [4] is described as follows: Retrospective chart review of topiramate side effect profile in 20 migraine patients. The format is in vivo, human. Also on record: key: 1: mild or none; 2: tolerable, not treatment limiting; 3: warrants trial of topiramate dose reduction; 4: considering stopping topiramate treatment strongly. The following applies: topiramate alone, monotherapy for at least 6 weeks; one line per patient at the indicated daily dosage.

For data set [5] the following is noted: cited from earlier work.
Data set [6] has as its system acute myelogenous leukemia cells. The following applies: normal bone marrow cells relatively unscathed; cited from earlier work.
The test system of another data set is Leishmania amazonensis. Particulars: cited from earlier work.

Several values for one entry are separate records, joined by “and”; a condition that tells them apart may be missing. Equal entries are not always repeated. Where two headings read alike, the source gives them in different places. A value given as a limit tells only on which side of the number the result lay.

For the compound “2,3:4,5-Di-O-isopropylidene-β-D-fructopyranose sulfamate [Topiramate]”, in the data set with cluster headaches (50, 100, or 125 mg/day), the “rapid relief of cluster headaches” value is given as “inadequate in providing rapid relief”. In the data set on cluster headaches (daily delivery in the 50-125 mg range), the “time to control the cluster headaches” value is listed as 1-3 weeks. The Efficacy in the data set with migraine [1] was 2 (9×) and 3 (8×); in the data set on migraine [3], 4 (headache frequency improvement either 50% or greater in frequency, severity or both). Further, the “reduction of migraine incidents vs. placebo” value is on record as “no statistical significance” with migraine [2] and “did not show statistically significant efficacy” in the data set with migraine [2] (listed as toprimate). Also, the Side Effects result in the data set on migraine [2] (100 mg or more per day) is “significant unacceptable side effects”; in data set [4], 1 (4×) and 4 (8×) and 3 (6×) and 2 (2×). Besides, the “prophylactic effect versus placebo” value in the data set on migraine [2] (100 mg per day or greater) is on record as “statistically significant prophylactic effects”. Besides, the “patients reporting an increase in migraine and other headaches” value with migraine [2] (human, in vivo) was greater than 1%. Moreover, in the data set with migraine [2] (patients having an average of 5.5 migraine per month, placebo: one headache per month), the “reduction of migraine frequency” value is reported as “about 2 headaches per month”.

For the compound `C=C1C(=O)O[C@H]2[C@H]1CC/C(C)=C/CC[C@@]1(C)O[C@@H]21` [Parthenolide], in data set [5], the solubility in water entry was “limited solubility in water”. Also, the “effect on acute myelogenous leukemia cells” value in data set [6] is listed as “destroy acute myelogenous leukemia cells by inducing apoptosis”. In addition, the “activity against Leishmania amazonensis” value in the data set on Leishmania amazonensis is recorded as “active against the parasite Leishmania amazonensis”.
